One block for each compound: values may come before it. The source made the active and inactive calls.
Legend:
[1] = system: Candida albicans; test: reversal of fluconazole resistance in C. albicans, dose response, CaCi-2 strain, Alamar Blue, dry powder, set 3 (AID 488907); format: functional, organism-based
[2] = system: Candida albicans; test: growth inhibition of azole-resistant C. albicans, dose response, CaCi-8 strain, Alamar Blue, dry powder, set 3 (AID 488905); format: functional, organism-based
[3] = biological target: DNA dC->dU-editing enzyme APOBEC-3A (Homo sapiens, UniProt P31941); test: SAR analysis of small molecule inhibitors of APOBEC3A DNA Deaminase via a fluorescence-based single-stranded DNA deaminase assay.; format: functional; conditions: read-out: IC50_Mean
[4] = biological target: DNA dC->dU-editing enzyme APOBEC-3G (Homo sapiens, UniProt Q9HC16); test: APOBEC3G deaminase inhibitors, SAR follow-up, biochemical, fluorescence, single-stranded DNA substrate (AID 602136); format: functional; conditions: read-out: IC50_Mean
[5] = biological target: Aurora kinase B (Homo sapiens, UniProt Q96GD4); format: functional
[6] = biological target: Aurora kinase A (Homo sapiens, UniProt O14965); format: functional;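 also: value from the Navigating the Kinome kinase panel profiling, panel entry STK6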
[7] = biological target: Vascular endothelial growth factor receptor 2 (Homo sapiens, UniProt P35968); format: functional
[8] = system: HEK293; test: inhibitors of LMP1-driven NF-kB reporter, dose response, cell-based, HEK293, luciferase, cherry-pick (AID 588343); format: functional; conditions: Homo sapiens
[9] = biological target: Beta-2 adrenergic receptor (Homo sapiens, UniProt P07550); test: beta2AR agonists driving receptor internalization, dose response, cell-based, FAP fluorogen, flow cytometry, cherry pick 1 (AID 588763); format: functional
[10] = biological target: T1, Short transient receptor potential channel 4 (Mus musculus, UniProt Q9QUQ5); test: mouse TRPC4 channel inhibitors, dose response, cell-based, HEK293 TRPC4/mu-opioid, Fluo-4 calcium (AID 434942); format: functional;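 also: potency of inhibitors blocking the TRPC4 calcium response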
T1 sequence (Q9QUQ5 whole entry): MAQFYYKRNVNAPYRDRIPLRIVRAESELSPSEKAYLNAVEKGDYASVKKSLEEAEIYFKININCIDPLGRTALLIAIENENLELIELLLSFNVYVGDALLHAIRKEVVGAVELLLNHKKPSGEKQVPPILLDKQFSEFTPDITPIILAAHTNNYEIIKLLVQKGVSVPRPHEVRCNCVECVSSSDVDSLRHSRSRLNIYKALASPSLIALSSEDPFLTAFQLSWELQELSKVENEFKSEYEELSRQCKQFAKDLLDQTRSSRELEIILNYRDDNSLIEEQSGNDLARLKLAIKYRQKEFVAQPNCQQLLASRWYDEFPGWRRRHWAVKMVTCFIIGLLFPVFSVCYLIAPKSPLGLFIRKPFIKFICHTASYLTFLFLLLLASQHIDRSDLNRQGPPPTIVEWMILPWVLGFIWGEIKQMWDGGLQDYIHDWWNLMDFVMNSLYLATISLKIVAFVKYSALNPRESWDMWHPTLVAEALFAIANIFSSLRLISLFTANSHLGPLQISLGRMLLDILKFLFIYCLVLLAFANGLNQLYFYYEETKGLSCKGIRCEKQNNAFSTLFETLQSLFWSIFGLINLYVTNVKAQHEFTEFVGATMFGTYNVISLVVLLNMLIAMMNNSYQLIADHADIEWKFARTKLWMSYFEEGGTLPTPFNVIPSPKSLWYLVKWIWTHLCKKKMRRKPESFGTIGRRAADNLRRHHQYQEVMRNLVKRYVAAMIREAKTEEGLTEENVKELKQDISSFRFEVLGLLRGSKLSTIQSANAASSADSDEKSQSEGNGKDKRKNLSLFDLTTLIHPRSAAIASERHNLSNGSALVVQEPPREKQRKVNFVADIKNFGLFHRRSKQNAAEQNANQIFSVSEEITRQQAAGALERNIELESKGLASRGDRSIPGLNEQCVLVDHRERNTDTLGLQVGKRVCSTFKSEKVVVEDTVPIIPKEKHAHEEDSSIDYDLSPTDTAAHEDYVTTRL

Sequence of Vascular endothelial growth factor receptor 2 (P35968 whole entry): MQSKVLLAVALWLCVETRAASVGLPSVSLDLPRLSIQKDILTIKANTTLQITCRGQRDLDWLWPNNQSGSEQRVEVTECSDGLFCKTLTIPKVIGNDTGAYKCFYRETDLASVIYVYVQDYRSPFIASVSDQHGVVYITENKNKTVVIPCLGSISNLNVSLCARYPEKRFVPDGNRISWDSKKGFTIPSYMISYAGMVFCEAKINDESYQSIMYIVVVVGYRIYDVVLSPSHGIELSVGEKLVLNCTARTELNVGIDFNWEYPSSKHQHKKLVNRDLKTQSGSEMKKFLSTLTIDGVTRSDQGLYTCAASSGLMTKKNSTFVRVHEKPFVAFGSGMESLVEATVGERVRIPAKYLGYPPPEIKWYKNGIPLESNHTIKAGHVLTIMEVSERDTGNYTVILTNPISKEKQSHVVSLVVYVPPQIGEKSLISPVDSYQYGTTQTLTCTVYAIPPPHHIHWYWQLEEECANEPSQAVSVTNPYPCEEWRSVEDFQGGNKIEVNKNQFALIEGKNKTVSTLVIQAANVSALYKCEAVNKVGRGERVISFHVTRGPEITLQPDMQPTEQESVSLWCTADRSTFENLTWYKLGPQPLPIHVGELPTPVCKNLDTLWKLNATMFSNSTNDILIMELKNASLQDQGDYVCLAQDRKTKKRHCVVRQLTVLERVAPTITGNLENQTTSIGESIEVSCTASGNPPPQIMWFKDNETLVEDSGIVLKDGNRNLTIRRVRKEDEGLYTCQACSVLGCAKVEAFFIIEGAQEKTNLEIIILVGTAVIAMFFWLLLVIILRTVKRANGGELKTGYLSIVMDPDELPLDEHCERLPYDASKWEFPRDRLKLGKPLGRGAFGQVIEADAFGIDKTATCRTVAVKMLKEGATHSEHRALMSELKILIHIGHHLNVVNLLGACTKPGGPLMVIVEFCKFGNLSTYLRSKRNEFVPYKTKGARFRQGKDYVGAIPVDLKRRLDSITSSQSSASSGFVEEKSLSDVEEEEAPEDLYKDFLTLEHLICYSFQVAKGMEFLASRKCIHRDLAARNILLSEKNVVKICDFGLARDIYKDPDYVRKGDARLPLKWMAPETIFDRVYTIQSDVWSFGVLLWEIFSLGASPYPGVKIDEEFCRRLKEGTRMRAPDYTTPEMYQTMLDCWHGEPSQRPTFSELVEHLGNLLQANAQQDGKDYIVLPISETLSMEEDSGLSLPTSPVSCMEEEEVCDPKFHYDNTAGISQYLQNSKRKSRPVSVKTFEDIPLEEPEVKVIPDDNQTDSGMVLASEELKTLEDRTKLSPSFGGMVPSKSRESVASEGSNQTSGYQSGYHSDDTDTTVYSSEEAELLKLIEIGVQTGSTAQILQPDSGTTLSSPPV
Sequence of DNA dC->dU-editing enzyme APOBEC-3A (P31941 whole entry): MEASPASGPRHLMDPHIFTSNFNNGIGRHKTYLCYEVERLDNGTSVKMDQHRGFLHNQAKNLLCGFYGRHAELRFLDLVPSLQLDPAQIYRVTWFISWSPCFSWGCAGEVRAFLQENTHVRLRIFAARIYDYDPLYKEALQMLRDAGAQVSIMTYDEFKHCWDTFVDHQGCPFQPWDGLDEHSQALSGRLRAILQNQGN
Sequence of Beta-2 adrenergic receptor (P07550 whole entry): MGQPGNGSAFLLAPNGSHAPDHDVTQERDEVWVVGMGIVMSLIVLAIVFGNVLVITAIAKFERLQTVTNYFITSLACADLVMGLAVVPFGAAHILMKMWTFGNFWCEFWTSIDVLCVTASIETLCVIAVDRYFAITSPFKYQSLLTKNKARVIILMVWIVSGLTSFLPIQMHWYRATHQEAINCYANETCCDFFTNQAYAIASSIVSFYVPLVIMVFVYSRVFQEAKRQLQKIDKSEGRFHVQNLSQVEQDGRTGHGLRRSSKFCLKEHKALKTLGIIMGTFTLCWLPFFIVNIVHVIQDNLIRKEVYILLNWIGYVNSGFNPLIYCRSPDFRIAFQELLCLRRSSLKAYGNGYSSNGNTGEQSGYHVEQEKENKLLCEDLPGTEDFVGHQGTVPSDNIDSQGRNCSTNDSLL
Sequence of Aurora kinase B (Q96GD4 whole entry): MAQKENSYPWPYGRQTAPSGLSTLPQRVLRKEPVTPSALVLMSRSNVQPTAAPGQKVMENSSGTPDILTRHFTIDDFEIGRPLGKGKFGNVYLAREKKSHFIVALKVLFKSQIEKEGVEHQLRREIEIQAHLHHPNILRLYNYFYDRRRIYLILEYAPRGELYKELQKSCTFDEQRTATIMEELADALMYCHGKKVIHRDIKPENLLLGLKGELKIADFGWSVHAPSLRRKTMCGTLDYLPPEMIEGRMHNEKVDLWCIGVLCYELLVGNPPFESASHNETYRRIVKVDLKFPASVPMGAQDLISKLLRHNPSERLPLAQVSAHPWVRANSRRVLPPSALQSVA
Sequence of DNA dC->dU-editing enzyme APOBEC-3G (Q9HC16 whole entry): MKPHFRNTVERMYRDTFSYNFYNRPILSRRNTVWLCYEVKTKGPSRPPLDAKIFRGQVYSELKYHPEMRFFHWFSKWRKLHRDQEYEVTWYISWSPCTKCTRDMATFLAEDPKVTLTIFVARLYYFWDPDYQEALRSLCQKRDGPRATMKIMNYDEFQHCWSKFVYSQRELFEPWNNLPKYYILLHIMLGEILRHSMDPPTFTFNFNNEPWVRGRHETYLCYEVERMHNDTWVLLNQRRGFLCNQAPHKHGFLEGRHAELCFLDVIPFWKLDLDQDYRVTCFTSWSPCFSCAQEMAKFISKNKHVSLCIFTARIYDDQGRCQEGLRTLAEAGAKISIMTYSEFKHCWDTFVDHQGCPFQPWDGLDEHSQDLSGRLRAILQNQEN
Sequence of Aurora kinase A (O14965 whole entry): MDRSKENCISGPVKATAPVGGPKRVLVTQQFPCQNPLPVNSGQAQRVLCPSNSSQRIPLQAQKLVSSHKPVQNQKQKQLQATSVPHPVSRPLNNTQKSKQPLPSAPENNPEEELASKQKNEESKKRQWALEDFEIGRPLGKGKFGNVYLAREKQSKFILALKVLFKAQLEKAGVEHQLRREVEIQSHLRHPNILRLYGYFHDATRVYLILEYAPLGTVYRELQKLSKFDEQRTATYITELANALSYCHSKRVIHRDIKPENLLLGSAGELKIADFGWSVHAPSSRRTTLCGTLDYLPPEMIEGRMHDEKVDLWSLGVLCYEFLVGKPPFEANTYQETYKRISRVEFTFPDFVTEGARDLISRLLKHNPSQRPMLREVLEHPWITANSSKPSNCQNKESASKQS

SMILES: N#Cc1ccc(C(=O)N2CCN(c3ccccn3)CC2)cc1
AC50 [1]: 2.66 µM (active)
AC50 [2]: 128 µM (active)

SMILES: Fc1ccc(OCCSc2nc3cccnc3[nH]2)cc1
IC50 [3]: > 99 µM (inactive)
IC50 [4]: > 99 µM (inactive)

Ki [5]: 0.00631 µM (active)
Ki [6]: 0.501 µM (active)
Ki [7]: 3.98 µM (active)
SMILES: O=S(=O)(Nc1ccc2c(c1)C(=NO)c1ccccc1-2)c1cccc(F)c1

SMILES: Brc1ccc2ncnc(NCc3ccccc3)c2c1
AC50 [8]: 5.03 µM (active)

EC50 [9]: 0.492 µM (active)
EC50 [10]: 2.11 µM (active)
SMILES: Oc1ccccc1Nc1nc(NCc2ccco2)c2ccccc2n1
